Experiments:
Assay type in all cases: cell-based, human
VSIG4 = assay: siRNA dose response, VSIG4 mRNA knockdown, Dual-Glo Luciferase Assay; details: Hepa1-6 + reporter plasmid, 24 hr
Method: (§1) Dose response curves for siRNAs were generated in vitro using a variety of cell lines according to Table 4.
(§2) Briefly, cells were seeded in 96-well plates and reverse transfected with siRNA, Lipofectamine® 2000 (0.5 uL/well; ThermoFisher), and, in some cases, a reporter plasmid (50 ng/well). The reporter plasmid (psiCHECK™-2, Promega) encoded both firefly luciferase and the gene of interest fused to renilla luciferase; silencing of the gene of interest results in proportional silencing of renilla luciferase but leaves firefly luciferase unaffected as an internal control.
(§3) After 24 hr incubation at 37° C., mRNA knockdown was measured using an endpoint assay. For targets without a reporter plasmid, a branched DNA (bDNA) assay was performed according to the manufacturer's instructions (QuantiGene® Singleplex Gene Expression Assay, ThermoFisher) to measure both the target gene and GAPDH (housekeeping gene) mRNA. Data are plotted as siRNA concentration (nM) vs. remaining mRNA (ratio of target gene to GAPDH, normalized to mock siRNA-transfected cells). For targets with a reporter plasmid, a Dual-Glo® Luciferase Assay was performed according to the manufacturer's instructions (Promega) to measure firefly and renilla luciferase expression. Data are plotted as siRNA concentration (nM) vs. remaining mRNA (ratio of renilla to firefly luminescence, normalized to mock siRNA-transfected cells).
(§4) For all dose response curves, a 4-parameter logistic model was applied to determine the IC50 of each siRNA sequence (Table 5 and FIG. 2). Data shown in Table 5 and FIG. 2 represent the mean of quadruplicates, +/−standard deviation.

CD37 = assay: siRNA dose response, CD37 mRNA knockdown, bDNA Assay; details: THP-1, 24 hr
Method: as §1, §2, §3, §4

AIF1 = assay: siRNA dose response, AIF1 mRNA knockdown, bDNA Assay; details: THP-1, 24 hr
Method: as §1, §2, §3, §4

CD74 = assay: siRNA dose response, CD74 mRNA knockdown, bDNA Assay; details: THP-1, 24 hr
Method: as §1, §2, §3, §4

Substance | IC50 (VSIG4) [nM] | IC50 (AIF1) [nM] | further results
XD-09179: siRNA targeting VSIG4 (sense 5'-ggccAGAcAGcuuuuAAuudTsdT-3'; antisense 5'-AAUuAAAAGCUGUCUGGCCdTsdT-3'; RNA with 2'-O-methyl and phosphorothioate modifications, case key not given here, as printed in the source, key not given here) | 0.006 | – | –
XD-09177: siRNA targeting VSIG4 (sense 5'-acuAGGAcuuGGucAucAudTsdT-3'; antisense 5'-AUGAUGACcAAGUCCuAGUdTsdT-3'; RNA with 2'-O-methyl and phosphorothioate modifications, case key not given here, as printed in the source, key not given here) | 0.007 | – | –
XD-09170: siRNA targeting VSIG4 (sense 5'-aaGGcuAcAcccAaGucuudTsdT-3'; antisense 5'-AAGACUUGGGUGuAGCCUUdTsdT-3'; RNA with 2'-O-methyl and phosphorothioate modifications, case key not given here, as printed in the source, key not given here) | 0.024 | – | –
XD-09770: siRNA targeting CD37 (sense 5'-gcuuGcGGGAcGucGuAGAdTsdT-3'; antisense 5'-UCuACGACGUCCCGcAAGCdTsdT-3'; RNA with 2'-O-methyl and phosphorothioate modifications, case key not given here, as printed in the source, key not given here) | – | – | IC50 (CD37): 0.553 nM
XD-09771: siRNA targeting CD37 (sense 5'-gacGucGuAGAGAaAAccAdTsdT-3'; antisense 5'-UGGUUUUCUCuACGACGUCdTsdT-3'; RNA with 2'-O-methyl and phosphorothioate modifications, case key not given here, as printed in the source, key not given here) | – | – | IC50 (CD37): 0.388 nM
XD-09668: siRNA targeting AIF1 (sense 5'-ccuAGAGcuAAAGaAAuuAdTsdT-3'; antisense 5'-uAAUUUCUUuAGCUCuAGGdTsdT-3'; as printed in the source, key not given here) | – | 0.267 | –
XD-09662: siRNA targeting AIF1 (sense 5'-uaucAuGucccuGaAAcGAdTsdT-3'; antisense 5'-UCGUUUcAGGGAcAUGAuAdTsdT-3'; as printed in the source, key not given here) | – | 0.12 | –
XD-09664: siRNA targeting AIF1 (sense 5'-agAcucAccuAGAgcuAAAdTsdT-3'; antisense 5'-UUuAGCUCuAGGUGAGUCUdTsdT-3'; as printed in the source, key not given here) | – | 0.433 | –
XD-09174: siRNA targeting VSIG4 (sense 5'-aacAAGAGcAuGucuAcGAdTsdT-3'; antisense 5'-UCGuAGAcAUGCUCUUGUUdTsdT-3'; RNA with 2'-O-methyl and phosphorothioate modifications, case key not given here, as printed in the source, key not given here) | 0.036 | – | –
XD-09777: siRNA targeting CD37 (sense 5'-guucAuGAcGcucucGAuAdTsdT-3'; antisense 5'-uAUCGAGAGCGUcAUGAACdTsdT-3'; RNA with 2'-O-methyl and phosphorothioate modifications, case key not given here, as printed in the source, key not given here) | – | – | IC50 (CD37): 0.414 nM
XD-09779: siRNA targeting CD37 (sense 5'-accAcccAcAAGAuuAuuudTsdT-3'; antisense 5'-AAAuAAUCUUGUGGGUGGUdTsdT-3'; RNA with 2'-O-methyl and phosphorothioate modifications, case key not given here, as printed in the source, key not given here) | – | – | IC50 (CD37): < 0.005 nM
XD-09663: siRNA targeting AIF1 (sense 5'-gaAAcGAAuGcuGgAGAAAdTsdT-3'; antisense 5'-UUUCUCcAGcAUUCGUUUCdTsdT-3'; as printed in the source, key not given here) | – | 0.263 | –
XD-09775: siRNA targeting CD37 (sense 5'-ccAcAAuccuAGAuAAGGudTsdT-3'; antisense 5'-ACCUuAUCuAGGAUUGUGGdTsdT-3'; RNA with 2'-O-methyl and phosphorothioate modifications, case key not given here, as printed in the source, key not given here) | – | – | IC50 (CD37): 1.6 nM
XD-09669: siRNA targeting AIF1 (sense 5'-ccGGGGAGAcGuucAGcuAdTsdT-3'; antisense 5'-uAGCUGAACGUCUCCCCGGdTsdT-3'; as printed in the source, key not given here) | – | 1.23 | –
XD-09665: siRNA targeting AIF1 (sense 5'-cucAccuAGAGcuaAAGAAdTsdT-3'; antisense 5'-UUCUUuAGCUCuAGGUGAGdTsdT-3'; as printed in the source, key not given here) | – | 0.349 | –
XD-09776: siRNA targeting CD37 (sense 5'-ggcuGcAcAAcAAccuuAudTsdT-3'; antisense 5'-AuAAGGUUGUUGUGcAGCCdTsdT-3'; RNA with 2'-O-methyl and phosphorothioate modifications, case key not given here, as printed in the source, key not given here) | – | – | IC50 (CD37): 1.32 nM
XD-09774: siRNA targeting CD37 (sense 5'-ccAAcGAcuccAcaAuccudTsdT-3'; antisense 5'-AGGAUUGUGGAGUCGUUGGdTsdT-3'; RNA with 2'-O-methyl and phosphorothioate modifications, case key not given here, as printed in the source, key not given here) | – | – | IC50 (CD37): 0.129 nM
XD-09173: siRNA targeting VSIG4 (sense 5'-cguGAGAGAuAAGauuAcudTsdT-3'; antisense 5'-AGuAAUCUuAUCUCUcACGdTsdT-3'; RNA with 2'-O-methyl and phosphorothioate modifications, case key not given here, as printed in the source, key not given here) | < 0.005 | – | –
XD-09176: siRNA targeting VSIG4 (sense 5'-cacuAGGAcuuGGucAucAdTsdT-3'; antisense 5'-AGAUGACcAAGUCCuAGUGdTsdT-3'; RNA with 2'-O-methyl and phosphorothioate modifications, case key not given here, as printed in the source, key not given here) | 0.031 | – | –
XD-09178: siRNA targeting VSIG4 (sense 5'-gucAucAuGccuAcAGAcAdTsdT-3'; antisense 5'-UGUCUGuAGGcAUGAUGACdTsdT-3'; RNA with 2'-O-methyl and phosphorothioate modifications, case key not given here, as printed in the source, key not given here) | 0.06 | – | –
XD-09661: siRNA targeting AIF1 (sense 5'-uaAuGGAAAuGGcgAuAuudTsdT-3'; antisense 5'-AAuAUCGCcAUUUCcAUuAdTsdT-3'; as printed in the source, key not given here) | – | 0.045 | –
XD-09666: siRNA targeting AIF1 (sense 5'-ucAccuAGAGcuAaAGAAAdTsdT-3'; antisense 5'-UUUCUUuAGCUCuAGGUGAdTsdT-3'; as printed in the source, key not given here) | – | 0.105 | –
XD-09172: siRNA targeting VSIG4 (sense 5'-gcAAccAAGucGugAGAGAdTsdT-3'; antisense 5'-UCUCUcACGACUUGGUUGCdTsdT-3'; RNA with 2'-O-methyl and phosphorothioate modifications, case key not given here, as printed in the source, key not given here) | < 0.005 | – | –
XD-09171: siRNA targeting VSIG4 (sense 5'-cuuucuAcGuGAcucuucudTsdT-3'; antisense 5'-AGAAGAGUcACGuAGAAAGdTsdT-3'; RNA with 2'-O-methyl and phosphorothioate modifications, case key not given here, as printed in the source, key not given here) | 0.023 | – | –
XD-09223: siRNA targeting CD74 (sense 5'-ggAGcuGucGGGAaGAucAdTsdT-3'; antisense 5'-UGAUCUUCCCGAcAGCUCCdTsdT-3'; as printed in the source, key not given here) | – | – | IC50 (CD74): 0.34 nM
XD-09667: siRNA targeting AIF1 (sense 5'-accuAGAGcuAAAgAAAuudTsdT-3'; antisense 5'-AAUUUCUUuAGCUCuAGGUdTsdT-3'; as printed in the source, key not given here) | – | 0.042 | –
XD-09237: siRNA targeting CD74 (sense 5'-ccAuAAuccuuucuGccGAdTsdT-3'; antisense 5'-UCGGcAGAAAGGAUuAUGGdTsdT-3'; as printed in the source, key not given here) | – | – | IC50 (CD74): 1.84 nM
